Experimental findings from ChEMBL document CHEMBL4483862, “Open-source discovery of chemical leads for next-generation chemoprotective antimalarials” (2018) are described below.

As a reminder, the IC50 is the point on the concentration scale where inhibition reaches its midpoint. A word on the IC90: it is the concentration at which the effect reaches the 90% level.

The assay concerns Plasmodium berghei. In words: Luciferase/luciferin-expressing antifolate-resistant parasites were used to infect a culture of HepG2 cells that were pre-incubated with compounds. Infected hepatocytes emit light due to the luciferase reaction. Assay results are presented as the percent inhibition of light emission compared to control. […]. It is filed as functional. As to conditions: sporozoite; for IC90: read-out: LUCIFERASE INFECTION ASSAY - IC90.

Setting [1] is: read-out: LUCIFERASE INFECTION ASSAY - IC50.

In the case of `Cc1cn2c(CC(=O)Nc3ccc(C(F)(F)F)cc3)csc2n1`, the IC90 was 5.2 µM. Besides, the IC50 (FFLUC_HILL_SLOPE 1.95, FFLUC_R_SQUARED 0.137, HEPG2TOX_HILL_SLOPE 2.23, HEPG2TOX_R_SQUARED 0.859, PBLUC_HILL_SLOPE 8.61, PBLUC_R_SQUARED 0.683, read-out: LUCIFERASE INFECTION ASSAY - IC50) was determined as 4.03 µM.

For `C=CCN(c1ccccc1Cl)S(=O)(=O)c1cc(C(=O)NCc2cn3cc(Cl)ccc3n2)ccc1Cl`, the IC90 was over 10 µM. Besides, the IC50 (FFLUC_HILL_SLOPE 155, FFLUC_R_SQUARED 0.0996, read-out: LUCIFERASE INFECTION ASSAY - IC50) was over 10 µM.

`CO/N=C1\CC(C)(C)Cc2c(-c3ccn(C(=O)Nc4ccc(Cl)cc4)n3)sc(SC)c21`: the IC90 was over 6.95 µM. In addition, the IC50 under setting [1] is over 6.95 µM.

On to `CC(NCC(O)COc1ccccc1C(C)(C)C)c1ccccc1` (stereo not given), for which the IC90 is over 9.07 µM. The IC50 (PBLUC_HILL_SLOPE 2.67, PBLUC_R_SQUARED 0.166, read-out: LUCIFERASE INFECTION ASSAY - IC50) worked out at 4.35 µM.

For the molecule `CN(C)CC(C)(C)CNc1nn2cc(-c3ccccc3)nc2s1`, the IC90 is over 10 µM. Further, the IC50 (PBLUC_HILL_SLOPE 0.619, PBLUC_R_SQUARED 0.654, read-out: LUCIFERASE INFECTION ASSAY - IC50) was found to be 0.732 µM.

Take `CCOC(=O)c1sc2sc(C(C)=O)c(C)c2c1C`: the IC90 was over 11.7 µM. In addition, the IC50 under setting [1] is over 11.7 µM.

On to `CC(c1cccnc1)N(C)C(=O)c1cc(NCc2ccc3c(c2)CCO3)cc(S(=O)(=O)N2CCCC2)c1` (stereo not given), for which the IC90 is over 6.34 µM. Further, the IC50 under setting [1] was over 6.34 µM.

`CC1CC(C)CN(S(=O)(=O)N2CCN(c3ccc(C(F)(F)F)cc3[N+](=O)[O-])CC2)C1` (stereo not given): the IC90 is over 10 µM. The IC50 under setting [1] is over 10 µM.

On to `COc1ccccc1C(=O)NCC#Cc1cccc(C(F)(F)F)c1`, for which the IC90 was 8.91 µM. Moreover, the IC50 (PBLUC_HILL_SLOPE 4.8, PBLUC_R_SQUARED 0.508, read-out: LUCIFERASE INFECTION ASSAY - IC50) came to 5.64 µM.

On to `COc1cc(-c2cnc3cnc(-c4cccnc4)cn23)ccc1O`, for which the IC90 turned out to be 3.99 µM. The IC50 (PBLUC_HILL_SLOPE 15.7, PBLUC_R_SQUARED 0.533, read-out: LUCIFERASE INFECTION ASSAY - IC50) came out at 3.47 µM.

Consider `O=C(Nc1cccc(C(F)(F)F)c1)c1cccc(Cn2cc(C(F)(F)F)ccc2=O)c1`, for which the concentration for an effect of 90% (IC90) is over 7.49 µM. Moreover, the IC50 (PBLUC_HILL_SLOPE 12.4, PBLUC_R_SQUARED 0.188, read-out: LUCIFERASE INFECTION ASSAY - IC50) came out at 6.37 µM.

As to `O=C(Cn1ncc(Cl)c(Cl)c1=O)N1CCN(S(=O)(=O)c2ccc3ccccc3c2)CC1`, the IC90 was over 10 µM. In addition, the IC50 (HEPG2TOX_HILL_SLOPE 11.9, 3.77, HEPG2TOX_R_SQUARED 0.663, 0.998, PBLUC_HILL_SLOPE 2.89, PBLUC_R_SQUARED 0.527, read-out: LUCIFERASE INFECTION ASSAY - IC50) was found to be 5.1 µM.

Regarding `O=C(C1CN(C(=O)CCCc2c[nH]c3ccccc23)c2ccccc2O1)N1CCCCC1` (stereo not given), the IC90 was over 10 µM. Further, the 50% inhibitory concentration (IC50) under setting [1] is over 10 µM.

`COc1ccc(-c2cc3c(cn2)nc(NCCc2cc(OC)ccc2OC)n3C)c(C)c1`: the IC90 was 3.63 µM. For the same molecule, the IC50 (HEPG2TOX_HILL_SLOPE 1.97, HEPG2TOX_R_SQUARED 0.898, PBLUC_HILL_SLOPE 1.3, PBLUC_R_SQUARED 0.74, read-out: LUCIFERASE INFECTION ASSAY - IC50) was 0.669 µM.

Consider `Cc1ccc2nc(-c3ccc(NC(=O)COC(=O)c4ccccc4C(=O)c4ccccc4)cc3)sc2c1`, for which the IC90 is over 10 µM. For the same molecule, the IC50 under setting [1] was over 10 µM.

With `CCOC(=O)c1oc2ccccc2c1COC(=O)c1ccc(C)c(NC(=O)c2ccco2)c1`, the IC90 was determined as 7.27 µM. Moreover, where the note is “PBLUC_HILL_SLOPE 12.1, 4.42, PBLUC_R_SQUARED 0.718, 0.471, read-out: LUCIFERASE INFECTION ASSAY - IC50”, the IC50 is 6.8 µM.

In the case of `CCOC(=O)c1c[nH]c2cc(Cl)cc(Cl)c2c1=O`, the IC90 was over 11.5 µM. Further, the IC50 under setting [1] was over 11.5 µM.

With `O=C(c1ccccc1)c1ccc(OCC(O)CNC2CCCCCCC2)cc1` (stereo not given), the IC90 was over 10 µM. The IC50 (PBLUC_HILL_SLOPE 1.94, PBLUC_R_SQUARED 0.684, read-out: LUCIFERASE INFECTION ASSAY - IC50) turned out to be 6.28 µM.

`CCCn1nc(C(=O)NCCc2ccc(-n3cccn3)cc2)c2ccccc2c1=O`: the IC90 came to 4.06 µM. For the setting “HEPG2TOX_HILL_SLOPE 1.69, HEPG2TOX_R_SQUARED 0.716, PBLUC_HILL_SLOPE 8.19, PBLUC_R_SQUARED 0.628, read-out: LUCIFERASE INFECTION ASSAY - IC50”, the IC50 was found to be 3.1 µM.

`O=C(COc1ccc2[nH]c3ccccc3c(=O)c2c1)Nc1ccccc1Cc1ccccc1`: the IC90 is 0.11 µM. Moreover, for the setting “PBLUC_HILL_SLOPE 1.04, PBLUC_R_SQUARED 0.893, read-out: LUCIFERASE INFECTION ASSAY - IC50”, the IC50 was 0.0133 µM.

`Cc1nn2c(=O)cc(C(C)C)[nH]c2c1-c1ccc(F)cc1`: the IC90 was over 11.6 µM. In addition, the IC50 under setting [1] was over 11.6 µM.

As to `COC(=O)c1cccc(NC(S)=Nc2ccc(Cl)c(Cl)c2)c1`, the IC90 was over 9.29 µM. Further, the IC50 under setting [1] is over 9.29 µM.

As for `Cc1ccccc1-c1cn2c(-c3cccc(O)c3)cnc2cn1`, the IC90 worked out at 8.68 µM. For the setting “HEPG2TOX_HILL_SLOPE 2.6, HEPG2TOX_R_SQUARED 0.936, PBLUC_HILL_SLOPE 3.74, PBLUC_R_SQUARED 0.417, read-out: LUCIFERASE INFECTION ASSAY - IC50”, the IC50 was 4.82 µM.

On to `CC1=CC2(C)C3C(=O)N(c4ccc(OC(F)(F)F)cc4)C(=O)C3C1C1C(=O)N(c3ccc(OC(F)(F)F)cc3)C(=O)C12` (stereo not given), for which the IC90 is over 5.55 µM. The IC50 (HEPG2TOX_HILL_SLOPE 2.78, HEPG2TOX_R_SQUARED 0.438, PBLUC_HILL_SLOPE 7.06, PBLUC_R_SQUARED 0.285, read-out: LUCIFERASE INFECTION ASSAY - IC50) is 5.08 µM.

Regarding `CSc1nnc(SC2=CC(=O)CC(c3ccccc3)C2)s1` (stereo not given), the 90% effect concentration (IC90) was over 9.87 µM. Further, the IC50 (FFLUC_HILL_SLOPE 1.55, FFLUC_R_SQUARED 0.208, HEPG2TOX_HILL_SLOPE 8.38, HEPG2TOX_R_SQUARED 0.886, read-out: LUCIFERASE INFECTION ASSAY - IC50) is over 9.87 µM.

As for `Fc1ccc(CNc2ccc(-c3nc4ccccc4[nH]3)cc2)cc1`, the IC90 was over 10.4 µM. Further, the IC50 (PBLUC_HILL_SLOPE 15.3, PBLUC_R_SQUARED 0.322, read-out: LUCIFERASE INFECTION ASSAY - IC50) is 9.03 µM.

Consider `Cc1ccc(-n2c(C)cc(C(=O)COC(=O)c3[nH]nc4ccccc34)c2C)cc1`, for which the IC90 was over 10 µM. Moreover, the IC50 (HEPG2TOX_HILL_SLOPE 1.65, HEPG2TOX_R_SQUARED 0.879, read-out: LUCIFERASE INFECTION ASSAY - IC50) is over 10 µM.

As to `N#Cc1ccc(NC(=O)c2cnn(Cc3ccccc3Cl)c2)cc1`, the IC90 was over 10 µM. For the same molecule, the IC50 under setting [1] was over 10 µM.

With `COc1ccc(-c2cnc3cnc(-c4ccccc4C)cn23)cc1`, the IC90 was found to be 0.0475 µM. Further, the 50% inhibitory concentration (IC50) (HEPG2TOX_HILL_SLOPE 0.359, HEPG2TOX_R_SQUARED 0.561, PBLUC_HILL_SLOPE 8.88, PBLUC_R_SQUARED 0.713, read-out: LUCIFERASE INFECTION ASSAY - IC50) is 0.0371 µM.

`O=[N+]([O-])c1cc(Cl)cc(/C=N/Nc2cc(C(F)(F)F)ccc2Cl)c1O`: the IC90 was over 10 µM. Besides, the IC50 (FFLUC_HILL_SLOPE 3.01, FFLUC_R_SQUARED 0.379, HEPG2TOX_HILL_SLOPE 2.46, HEPG2TOX_R_SQUARED 0.824, read-out: LUCIFERASE INFECTION ASSAY - IC50) is over 10 µM.

For `CCOc1cc2c(cc1CN(Cc1nc(=O)c3cc(-c4ccccc4)sc3[nH]1)Cc1nc(=O)c3cc(-c4ccccc4)sc3[nH]1)OC(C)C2` (stereo not given), the IC90 was over 10 µM. Besides, under setting [1], the IC50 is over 10 µM.

Take `O=C(Nc1ccccc1)c1nnsc1S(=O)(=O)c1ccc(Cl)cc1`: the IC90 is over 8.69 µM. Besides, the IC50 under setting [1] was over 8.69 µM.

As for `CS(=O)(=O)c1ccccc1NC(=O)COC(=O)c1cccnc1N`, the 90% effect concentration (IC90) was over 10 µM. Further, the IC50 (FFLUC_HILL_SLOPE 0.757, FFLUC_R_SQUARED 0.634, read-out: LUCIFERASE INFECTION ASSAY - IC50) is over 10 µM.

With `COc1ccc(/C=N/OCC(=O)Nc2ccccc2C(F)(F)F)cc1`, the concentration for an effect of 90% (IC90) is over 10 µM. For the same molecule, the IC50 (PBLUC_HILL_SLOPE 0.525, PBLUC_R_SQUARED 0.458, read-out: LUCIFERASE INFECTION ASSAY - IC50) was over 10 µM.

Consider `COc1ccc(CCNC(=S)NC(=O)c2c(-c3ccccc3Cl)noc2C)cc1OC`, for which the IC90 is over 7.17 µM. In addition, the IC50 (PBLUC_HILL_SLOPE 1.8, PBLUC_R_SQUARED 0.103, read-out: LUCIFERASE INFECTION ASSAY - IC50) is over 7.17 µM.

As to `O=C(Nc1cc(S(=O)(=O)c2ccccc2)cs1)c1cccc(Cl)c1`, the IC90 is over 8.73 µM. For the same molecule, the IC50 (FFLUC_HILL_SLOPE 2.16, FFLUC_R_SQUARED 0.469, read-out: LUCIFERASE INFECTION ASSAY - IC50) was over 8.73 µM.

As for `Nc1ccccc1C(=O)Nc1cc(C(F)(F)F)cc(C(F)(F)F)c1`, the IC90 was over 9.48 µM. Moreover, under setting [1], the IC50 was over 9.48 µM.

Take `CN1CCCN(c2ccc(NC(=O)OCC(F)(F)F)cc2F)CC1`: the IC90 is over 10 µM. Further, the IC50 under setting [1] was over 10 µM.

With `CN(C)CCOCCOc1c(Cl)cc(Cl)cc1Cl`, the IC90 is over 10 µM. Moreover, the IC50 under setting [1] was over 10 µM.

With `CC(C)(C)c1cc(C(=O)Nc2cc(-c3cccs3)nn2-c2ccc(F)cc2)n(Cc2ccccc2)n1`, the IC90 is over 6.61 µM. The concentration for half-maximal inhibition (IC50) (HEPG2TOX_HILL_SLOPE 6.06, HEPG2TOX_R_SQUARED 0.212, read-out: LUCIFERASE INFECTION ASSAY - IC50) is over 6.61 µM.
